From US8658649B2, “Kinase inhibitor” (Sanofi, priority 2006, dated 2014) come the findings set out here.

SMILES strings stand for the structures.

A word on the IC50: it is the point on the concentration scale where inhibition reaches its midpoint.

One assay concerns the target T1, Syk (Homo sapiens, UniProt P43405).
T1 construct: Flag; made in house
The experiment in a line: Syk substrate phosphorylation, Streptavidin FlashPlate. Format: biochemical. As to conditions: 7.77 nM Flag-tagged Syk, PGT-Biotin substrate, 33P-ATP. The source says: • Assay Name: Spleen Tyrosine (Y) Kinase • Short Name: Syk • Assay Format: Substrate Phosphorylation • Detection Format: Streptavidin FlashPlate • Modulation: Inhibition
Streptavidin FlashPlate Plus microplates from PerkinElmer Life Sciences™ are designed for in-plate radiometric assays. The interior of each well is permanently coated with a thin layer of polystyrene-based scintillant followed by covalent binding of Streptavidin. These plates are suitable for a wide variety of assay applications which utilize biotinylated capture molecules. Poly (Glu,Tyr) 4:1 (PGT) is a random copolymer that can act as a substrate for tyrosine-specific protein kinases. The assay measures the phosphorylation of PGT-Biotin substrate by Syk. The enzyme transfers the [γ^33P]-phosphate from [γ^33P]-ATP to the polymeric substrate. The assay was run in solution in a non-binding 384-well plate. After stopping the reaction using phosphoric acid, the reaction mixture was transferred to a 384-well Streptavidin Flashplate. The biotinylated substrate was captured onto the plate and other reagents including hot ATP were washed away. Each well was then counted for radioactivity.
The enzyme reaction was run in a 384-well non-binding plate. […] Radioactivity was counted on a Top Count™ scintillation counter. […]

In assay [1] the test system is Collagen-induced arthritis (CIA). The assay is described as follows: Rat collagen induced arthritis, combination dosing with Methotrexate. It counts as in vivo. On the procedure:
Immunization and Challenge: Female Lewis rats were immunized on day 0 and challenged on day 7 with cII from bovine nasal mixed with Freund's incomplete adjuvant at a final collagen concentration of 1.0 mg/ml. The animals were injected at the base of the tail with 400 μg of cII. Combination Dosing Regimen: Rats were dosed with the compound of Formula I (3.0 and 10 mg/kg, p.o., bi.d.) or Methotrexate (MTX, 0.1 and 0.2 mg/kg, p.o., q.d.) as monotherapy or in combinations consisting of each dose of the compound of Formula I with each dose of MTX starting on day 6 and continuing through day 21. Joint Pathology Ankle joint swelling was measured to the nearest 0.01 mm by using electronic digital calipers. Measurements were recorded 7 times throughout the study starting on day 6 and ending on day 21. Body weights were recorded on the same days. On day 21, hind paws were removed at the hairline just above the ankle and fixed in 10% neutral buffered formalin. MicroCT analysis: Ankle joints were examined using a cone-beam μCT scanner. A scout view scan was obtained first for selection of the examination volume of the specimens, followed by positioning, measurement and computational reconstruction. In ankle joints, the ratio of bone surface to bone volume, describing the complexity of bone surface in a certain volume, was analyzed. Statistical Analysis For joint swelling/inflammation, data were analyzed using Everstat v.5 software and a 2-way repeated measure ANOVA with Dunnett's post test. MicroCT data were analyzed by Everstat using a 1-way ANOVA and Newman-Keuls multiple comparison test.

`CCc1c(-c2ccc(C(C)(C)O)cc2)[nH]c2nccnc12` [compound of Formula I, 2-[4-(7-Ethyl-5H-pyrrolo[2,3-b]pyrazin-6-yl)-phenyl]-propan-2-ol] showed a 50% inhibitory concentration (IC50) against Syk of 1.7 nM. Besides, in assay [1] (3.0 mg/kg monotherapy), the “disease severity as measured by joint swelling/inflammation” value is on record as “failed to significantly impact on disease severity”. For the same compound, the “bone erosion, MicroCT” value in assay [1] (3 mg/kg monotherapy, vs vehicle) is listed as “significant decrease was not observed”; in assay [1] (10 mg/kg po bid monotherapy, vs vehicle) it was “significant decrease in bone erosion”. In assay [1] (10 mg/kg monotherapy, vs vehicle, days 15 through 21), the ankle swelling/inflammation entry is recorded as “significantly reduced ankle swelling/inflammation”.
